Reference: PubChem BioAssay AID282 (DTP/NCI, 2004)
“And” between values parts separate entries of the source, which are not always exact repeats. Identical values can stand only once. Toxic doses and inconclusive results are not listed. The calls were made as follows: active = survival T/C of 150% or more; inactive = T/C below 125% in these data.

Test system: BDF1 mice, L1210 terephthalanilide-resistant leukemia ip, survival T/C
Assay: NCI In Vivo Anticancer Drug Screen. Data for tumor model L1210 Leukemia resistant to A Terephthalanilide; NSC 38280 (intraperitoneal) in B6D2F1 (BDF1) mice
Settings: endpoint: mean survival time, higher = longer survival
Description: The antitumor activity of compounds was measured in mice bearing transplantable tumors. Survival or tumor size were measured and the results are expressed as the measurement made in the treated group (T) divided by the measurement made in the vehicle treated control group (C). The tumor model used in this assay is L1210 Leukemia resistant to A Terephthalanilide; NSC 38280 (intraperitoneal) in B6D2F1 (BDF1) mice

[1] = dose: 0.5 mg/kg/injection, schedule: Q01DX Z (ip), vehicle: carboxymethylcellulose (CMC)
[2] = dose: 1.0 mg/kg/injection, schedule: Q01DX Z (ip), vehicle: carboxymethylcellulose (CMC)
[3] = dose: 2.5 mg/kg/injection, schedule: Q01DX010 (ip), vehicle: saline
[4] = dose: 2.5 mg/kg/injection, schedule: Q01DX Z (ip), vehicle: carboxymethylcellulose (CMC)
[5] = dose: 5.0 mg/kg/injection, schedule: Q01DX010 (ip), vehicle: saline
[6] = dose: 5.0 mg/kg/injection, schedule: Q01DX Z (ip), vehicle: carboxymethylcellulose (CMC)
[7] = dose: 10.0 mg/kg/injection, schedule: Q01DX010 (ip), vehicle: saline
[8] = dose: 10.0 mg/kg/injection, schedule: Q01DX Z (ip), vehicle: carboxymethylcellulose (CMC)
[9] = dose: 15.0 mg/kg/injection, schedule: Q01DX Z (ip), vehicle: carboxymethylcellulose (CMC)
[10] = dose: 20.0 mg/kg/injection, schedule: Q01DX010 (ip), vehicle: saline
[11] = dose: 2.0 mg/kg/injection, schedule: Q01DX Z (ip), vehicle: carboxymethylcellulose (CMC)
[12] = dose: 25.0 mg/kg/injection, schedule: Q01DX Z (ip), vehicle: carboxymethylcellulose (CMC)
[13] = dose: 50.0 mg/kg/injection, schedule: Q01DX Z (ip), vehicle: carboxymethylcellulose (CMC)
[14] = dose: 250.0 mg/kg/injection, schedule: Q01DX Z (ip), vehicle: carboxymethylcellulose (CMC)
[15] = dose: 375.0 mg/kg/injection, schedule: Q01DX Z (ip), vehicle: carboxymethylcellulose (CMC)
[16] = dose: 54.0 mg/kg/injection, schedule: Q01DX010 (ip), vehicle: saline

Measured: T/C

Clc1ccc(C(c2ccccc2Cl)C(Cl)Cl)cc1 (stereo not drawn)
inactive: dose: 62.5 mg/kg/injection, schedule: Q01DX Z (sc), vehicle: steriod suspending solution 102 % of control | dose: 125.0 mg/kg/injection, schedule: Q01DX Z (sc), vehicle: steriod suspending solution 104 % of control | dose: 250.0 mg/kg/injection, schedule: Q01DX Z (sc), vehicle: steriod suspending solution 93 % of control | dose: 500.0 mg/kg/injection, schedule: Q01DX Z (sc), vehicle: steriod suspending solution 102 % of control | dose: 750.0 mg/kg/injection, schedule: Q01DX Z (sc), vehicle: steriod suspending solution 100 % of control | dose: 1000.0 mg/kg/injection, schedule: Q01DX Z (sc), vehicle: steriod suspending solution 95 % of control | dose: 1200.0 mg/kg/injection, schedule: Q01DX Z (sc), vehicle: steriod suspending solution 94 % of control | dose: 1500.0 mg/kg/injection, schedule: Q01DX Z (sc), vehicle: steriod suspending solution 91 % of control

Nc1nc(=S)c2[nH]cnc2[nH]1
inactive: [5] 108 % of control and 113 % of control | [6] 109 % of control | [7] 90 % of control and 98 % of control | [8] 96 % of control and 116 % of control | [9] 106 % of control | dose: 20.0 mg/kg/injection, schedule: Q01DX Z (ip), vehicle: carboxymethylcellulose (CMC) 96 % of control and 101 % of control | dose: 31.0 micrograms/kg/injection, schedule: Q01DX Z (ip), vehicle: carboxymethylcellulose (CMC) 107 % of control | dose: 125.0 micrograms/kg/injection, schedule: Q01DX Z (ip), vehicle: carboxymethylcellulose (CMC) 110 % of control
active: [1] 165 % of control | [2] 158 % of control | dose: 1.25 mg/kg/injection, schedule: Q01DX010 (ip), vehicle: saline 156 % of control | [3] 173 % of control | [4] 159 % of control

OCC1OC(n2cnc3c(=S)nc[nH]c32)C(O)C1O (stereo not drawn)
active: dose: 160.0 mg/kg/injection, schedule: Q01DX010 (ip), vehicle: saline 162 % of control
inactive: [10] 111 % of control | dose: 40.0 mg/kg/injection, schedule: Q01DX010 (ip), vehicle: saline 119 % of control

NC(Cc1ccc(N(CCCl)CCCl)cc1)C(=O)O (stereo not drawn)
active: [11] 174 % of control | [3] 183 % of control | [4] 162 % of control | dose: 4.0 mg/kg/injection, schedule: Q01DX Z (ip), vehicle: carboxymethylcellulose (CMC) 184 % of control | [5] 166 % of control | [6] 212 % of control | dose: 7.5 mg/kg/injection, schedule: Q01DX Z (ip), vehicle: carboxymethylcellulose (CMC) 172 % of control | [8] 181 % of control
inactive: dose: 0.31 mg/kg/injection, schedule: Q01DX Z (ip), vehicle: carboxymethylcellulose (CMC) 113 % of control | dose: 0.62 mg/kg/injection, schedule: Q01DX Z (ip), vehicle: carboxymethylcellulose (CMC) 114 % of control | [9] 120 % of control

Cc1cc(N(CCCl)CCCl)ccc1N=Nc1ccccc1C(=O)O
inactive: [1] 105 % of control | [2] 102 % of control | [11] 115 % of control | [5] 108 % of control and 113 % of control | dose: 6.25 mg/kg/injection, schedule: Q01DX Z (ip), vehicle: carboxymethylcellulose (CMC) 111 % of control | [7] 116 % of control and 120 % of control | [10] 118 % of control and 119 % of control | [12] 115 % of control | dose: 37.5 mg/kg/injection, schedule: Q01DX Z (ip), vehicle: carboxymethylcellulose (CMC) 112 % of control | [13] 100 % of control

COc1cc(-c2ccc(Nc3ccccc3C(=O)O)c(OC)c2)ccc1Nc1ccccc1C(=O)O
active: dose: 67.0 mg/kg/injection, schedule: Q01DX010 (ip), vehicle: saline 150 % of control and 159 % of control

CS(=O)(=O)OCC(O)C(O)COS(C)(=O)=O (stereo not drawn)
inactive: [12] 107 % of control | [13] 103 % of control | dose: 100.0 mg/kg/injection, schedule: Q01DX Z (ip), vehicle: carboxymethylcellulose (CMC) 103 % of control | dose: 200.0 mg/kg/injection, schedule: Q01DX010 (ip), vehicle: saline 101 % of control | dose: 200.0 mg/kg/injection, schedule: Q01DX Z (ip), vehicle: carboxymethylcellulose (CMC) 101 % of control | [14] 100 % of control | [15] 111 % of control | dose: 400.0 mg/kg/injection, schedule: Q01DX010 (ip), vehicle: saline 97 % of control | dose: 800.0 mg/kg/injection, schedule: Q01DX010 (ip), vehicle: saline 91 % of control

Nc1nc(F)nc2c1ncn2C1OC(CO)C(O)C1O (stereo not drawn)
inactive: dose: 0.75 mg/kg/injection, schedule: Q01DX Z (ip), vehicle: saline 111 % of control | dose: 1.5 mg/kg/injection, schedule: Q01DX Z (ip), vehicle: saline 108 % of control | dose: 3.0 mg/kg/injection, schedule: Q01DX Z (ip), vehicle: saline 114 % of control | dose: 6.0 mg/kg/injection, schedule: Q01DX Z (ip), vehicle: saline 101 % of control

CN(C)c1ccc(Nc2c3ccccc3nc3ccccc23)cc1
inactive: dose: 36.0 mg/kg/injection, schedule: Q01DX010 (ip), vehicle: saline 108 % of control | [16] 102 % of control and 111 % of control | dose: 80.0 mg/kg/injection, schedule: Q01DX010 (ip), vehicle: saline 97 % of control and 109 % of control | dose: 120.0 mg/kg/injection, schedule: Q01DX010 (ip), vehicle: saline 119 % of control

O[C@H](CN1CC1)[C@@H](O)CN1CC1
active: dose: 0.18 mg/kg/injection, schedule: Q01DX Z (ip), vehicle: saline 317 % of control | dose: 0.25 mg/kg/injection, schedule: Q01DX Z (ip), vehicle: saline 300 % of control | dose: 0.37 mg/kg/injection, schedule: Q01DX Z (ip), vehicle: saline 223 % of control | dose: 5.0 mg/kg/injection, schedule: Q01DX Z (ip), vehicle: saline 188 % of control | dose: 50.0 micrograms/kg/injection, schedule: Q01DX Z (ip), vehicle: saline 156 % of control | dose: 75.0 micrograms/kg/injection, schedule: Q01DX Z (ip), vehicle: saline 154 % of control and 162 % of control | dose: 180.0 micrograms/kg/injection, schedule: Q01DX Z (ip), vehicle: saline 284 % of control | dose: 210.0 micrograms/kg/injection, schedule: Q01DX Z (ip), vehicle: saline 235 % of control
inactive: dose: 2.0 micrograms/kg/injection, schedule: Q01DX Z (ip), vehicle: saline 109 % of control | dose: 4.0 micrograms/kg/injection, schedule: Q01DX Z (ip), vehicle: saline 101 % of control | dose: 6.0 micrograms/kg/injection, schedule: Q01DX Z (ip), vehicle: saline 98 % of control | dose: 9.0 micrograms/kg/injection, schedule: Q01DX Z (ip), vehicle: saline 110 % of control | dose: 18.0 micrograms/kg/injection, schedule: Q01DX Z (ip), vehicle: saline 115 % of control | dose: 37.0 micrograms/kg/injection, schedule: Q01DX Z (ip), vehicle: saline 103 % of control | dose: 62.5 micrograms/kg/injection, schedule: Q01DX010 (ip), vehicle: saline 120 % of control | dose: 125.0 micrograms/kg/injection, schedule: Q01DX010 (ip), vehicle: saline 111 % of control | dose: 500.0 micrograms/kg/injection, schedule: Q01DX010 (ip), vehicle: saline 91 % of control

CC(=O)OCC1OC(n2ncc(=O)[nH]c2=O)C(OC(C)=O)C1OC(C)=O (stereo not drawn)
active: dose: 125.0 mg/kg/injection, schedule: Q01DX Z (ip), vehicle: carboxymethylcellulose (CMC) 183 % of control | [14] 206 % of control | [15] 214 % of control | dose: 500.0 mg/kg/injection, schedule: Q01DX Z (ip), vehicle: carboxymethylcellulose (CMC) 168 % of control

O=C(Nc1cccc(C(=O)Nc2ccc(C3=NCCN3)cc2)c1)c1ccc(C2=NCCN2)cc1
inactive: [16] 90 % of control

Nc1nc(N)c2nc(CNc3ccc(C(=O)NC(CCC(=O)O)C(=O)O)cc3)cnc2n1 (stereo not drawn)
inactive: dose: 0.03 mg/kg/injection, schedule: Q01DX010 (ip), vehicle: other 99 % of control and 109 % of control | dose: 0.05 mg/kg/injection, schedule: Q01DX010 (ip), vehicle: other 123 % of control and 101 % of control | dose: 0.1 mg/kg/injection, schedule: Q01DX010 (ip), vehicle: other 122 % of control and 124 % of control
